Test system: LmUGT73P1
Experiment: LC-QTOF-MS/MS rhamnosyltransferase assay, Michaelis-Menten plot
Type: biochemical, Lonicera macranthoides
Conditions: 10 mM UDP-Rha, 50 mM Tris-HCl pH 7.5, 37 °C, 20 min

CC1(C)CC[C@]2(C(=O)O)CC[C@]3(C)C(=CC[C@@H]4[C@@]5(C)CC[C@H](O[C@@H]6OC[C@H](O)[C@H](O)[C@H]6O)[C@@](C)(CO)[C@@H]5CC[C@]43C)[C@@H]2C1 [cauloside A]
Km: 33 µM

— paper PMC10579715 (Plant Biotechnology Journal, 2023)
